From patent publication US20020142940A1, “Method of inhibiting viral infection using HMG-COA reductase inhibitors and isoprenylation inhibitors” (priority 2000, published 2002)
Several values for one entry are separate records, joined by “and”; a condition that tells them apart may be missing. Equal values may be shown once. Entries after “also recorded” stand apart in the source; their conditions may differ.

Key:
HPIV-3 [1] = assay: HPIV-3 syncytia formation in HEp-2 cells; assay type: cell-based; conditions: for rescue of lovastatin inhibition of HPIV-3 syncytia formation: added to lovastatin treated cells
HPIV-3 [2] = assay: HPIV-3 replication in HEp-2 cells, plaque assay; assay type: cell-based; conditions: for reduction of HPIV-3 replication: 5 μM, 24 hrs treatment, MOI 0.1, titer 2 days after infection; for rescue of lovastatin inhibition of HPIV-3 replication: added to 10 μM lovastatin treated cells, 50 μM GGP, mevalonolactone or FP, cholesterol concentration not given
RSV [3] = assay: RSV-induced weight loss and illness in mice; assay type: in vivo; conditions: for peak percent weight loss on day 8 post infection: comparison PBS, gemfibrozil, lovastatin treated RSV-infected mice
RSV [4] = assay: RSV replication in mice, lung plaque assay; assay type: in vivo; conditions: for peak RSV titer in the lung: mice, oral gavage beginning three days prior to infection, 1 mg/day lovastatin or 50 mg/day gemfibrozil, lungs day 4
[5] = Weight loss in uninfected treated mice; assay type: in vivo; conditions: 1 mg/day lovastatin or 50 mg/day gemfibrozil for 11 days
vaccinia virus = assay type: in vivo, mice; conditions: 1 mg/day lovastatin or 50 mg/day gemfibrozil oral gavage beginning three days prior to infection, vs PBS
RSV [6] = assay: RSV replication in HEp-2 cell culture, plaque assay; assay type: cell-based
Method: FIG. 5—Lovastatin eliminates RSV replication in cell culture. HEp-2 cell monolayers grown in 96 well plates were treated with either 10 μM lovastatin or left untreated beginning 24 hr prior to RSV infection (moi 0.1). Virus titer was measured for 8 consecutive days after RSV infection daily by plaque assay for eight days post RSV infection by harvesting the entire contents of a well and performing plaque assays in triplicate. RSV growth curve in untreated cells (□) and in cells treated with 10 μM lovastatin ( ? ). Error bars represent standard deviation.
Virus and Cells. The A2 strain of RSV was provided by Dr. R. Chanock, NIH, Bethesda, Md. RSV stocks were prepared as previously described (Graham et al., 1988). HEp-2 cells were maintained in Eagle's minimal essential media supplemented with glutamine, gentamicin, penicillin G, and 10% fetal bovine serum (FBS).
Plaque assay. Two-day-old HEp-2 monolayers, 80% confluent in 12-well plates (Costar, Cambridge, Mass.) were used for plaque assay. The assay was done as previously described (Graham et al., 1988).
Lovastatin eliminates RSV replication in HEp-2 cells. Next, the inventors asked whether lovastatin could alter RSV replication in cell culture. HEp-2 cells in a 96-well plate were treated with either 10 μM lovastatin or left untreated beginning 24 hr prior to RSV infection. […]

HIV-1 = conditions: human H9 lymphocytic cell line, early stages of infection; cited from earlier work
[7] = tested on: RSV glycoproteins F, G and SH; assay type: cell-based
HIV = conditions: cultured MT-2 cells; reported in U.S. Ser. No. 09/129,565; cited from earlier work
[8] = 5 μM, beginning 24 hr prior to infection, MOI 0.1, two days post infection
[9] = 10 μM lovastatin beginning 24 hr prior to infection, MOI 0.1

COC(=O)[C@H](CCSC)NC(=O)c1ccc(NC[C@@H](N)CS)cc1-c1ccccc1 [FTI-277]
HPIV-3-induced syncytia formation (HPIV-3 [1]; [8]): does not inhibit | reduction of HPIV-3 replication (HPIV-3 [2]): 10 fold

COC(=O)[C@H](CC(C)C)NC(=O)c1ccc(NC[C@@H](N)CS)cc1-c1cccc2ccccc12 [GGTI-298]
HPIV-3-induced syncytia formation (HPIV-3 [1]; [8]): blocked | reduction of HPIV-3 replication (HPIV-3 [2]): 100 fold

CC(C)CCC[C@@H](C)[C@H]1CC[C@H]2[C@@H]3CC=C4C[C@@H](O)CC[C@]4(C)[C@H]3CC[C@]12C [cholesterol]
rescue of lovastatin inhibition of HPIV-3 replication (HPIV-3 [2]): cannot rescue the inhibition

CC(C)=CCC/C(C)=C/CC/C(C)=C/COP(=O)(O)OP(=O)(O)O [farnesylpyrophosphate]
rescue of lovastatin inhibition of HPIV-3 syncytia formation (HPIV-3 [1]): does not rescue the inhibition | rescue of lovastatin inhibition of HPIV-3 replication (HPIV-3 [2]): partially restores

Cc1ccc(C)c(OCCCC(C)(C)C(=O)O)c1 [gemfibrozil]
peak percent weight loss on day 8 post infection (RSV [3]): 40% | inhibition of RSV replication in mice (RSV [4]; 50 mg/day gemfibrozil oral gavage (FIG. 1)): does not inhibit RSV replication | peak RSV titer in the lung (RSV [4]): 6.5+/−0.43 log10 pfu/gm | weight loss in uninfected mice [5]: no significant weight loss | effect on vaccinia replication (vaccinia virus): not effected

CC(C)=CCC/C(C)=C/CC/C(C)=C/CC/C(C)=C/COP(=O)(O)OP(=O)(O)O [geranylgeranylpyrophosphate]
rescue of lovastatin inhibition of HPIV-3 syncytia formation (HPIV-3 [1]): rescues the inhibition | rescue of lovastatin inhibition of HPIV-3 replication (HPIV-3 [2]): rescues the inhibition

CC[C@H](C)C(=O)O[C@H]1C[C@@H](C)C=C2C=C[C@H](C)[C@H](CC[C@@H]3C[C@@H](O)CC(=O)O3)[C@H]21 [lovastatin]
RSV replication in HEp-2 cells (RSV [6]; 10 μM lovastatin beginning 24 hr prior to RSV infection (moi 0.1), titer for 8 days): completely inhibited | peak weight loss 8 days post infection (RSV [3]; 1 mg/day lovastatin 1 day post infection): 22% | peak weight loss 8 days post infection (RSV [3]; 1 mg/day lovastatin 1 day prior to infection): 19% | peak percent weight loss at 8 days post infection (RSV [3]; 1 mg/day lovastatin 3 days after RSV infection): about 30% | peak weight loss 8 days post infection (RSV [3]; 1 mg/day lovastatin 3 days prior to infection): 17% | peak percent weight loss on day 8 post infection (RSV [3]): 19% | RSV-induced illness (RSV [3]; lovastatin treatment, data not shown): reduces RSV-induced illness | HPIV-3-induced syncytia formation (HPIV-3 [1]; [9]): blocked | reduction in RSV viral titer (RSV [4]; 1 mg/day lovastatin beginning 1 day after RSV infection): 10 fold | reduction in RSV viral titer compared to untreated mice (RSV [4]; 1 mg/day lovastatin beginning 3 days after infection): no reduction | RSV viral titer in the lung on day 4 (RSV [4]; 1 mg/day lovastatin beginning 3 days prior to infection): 3.8+/−0.48 log10 pfu/gm | reduction in RSV viral titer in lung compared to untreated mice (RSV [4]; 1 mg/day lovastatin beginning 3 days prior to infection, day 4): > 100 fold and 100- to 1000 fold | reduction of RSV replication (RSV [4]; 1 mg/day lovastatin oral gavage beginning three days prior to infection, vs PBS/gemfibrozil (FIG. 1)): ~100 fold | RSV viral titer in the lung on day 4 (RSV [4]; 1 mg/day lovastatin starting 3 days after RSV infection): 6.3+/−1.1 log10 pfu/gm | inhibition of RSV replication, dose response (RSV [4]; C57BL6 mice, 1 mg/day and 5 mg/day within 0.5 to 20 mg/day dose response): inhibited RSV replication equivalently | peak RSV titer in the lung (RSV [4]): 4.7+/−0.4 log10 pfu/gm | reverse transcriptase activity in H9 cells infected with HIV-1 (HIV-1): decrease in reverse transcriptase activity | weight loss in uninfected mice [5]: no significant weight loss | HPIV-3 replication (HPIV-3 [2]; [9]): completely blocks | diminution of virus-induced cell-to-cell fusion [7]: greater than 50% | fusion events per well [7]: 75+/−11 fusion events per well | effect on vaccinia replication (vaccinia virus): not effected; also recorded: does not inhibit vaccinia virus replication

C[C@@]1(O)CCOC(=O)C1 [mevalonolactone]
rescue of lovastatin inhibition of RSV replication (RSV [6]; 10 μM lovastatin for 24 hr followed by 20 μM mevalonolactone): can be rescued | rescue of lovastatin inhibition of HPIV-3 syncytia formation (HPIV-3 [1]): rescues the inhibition | rescue of lovastatin inhibition of HPIV-3 replication (HPIV-3 [2]): rescues the inhibition

RhoA77-95: peptide comprising the sequence of amino acids 77-95 of RhoA (TDVILMCFSIDSPDSLENI; UniProt P61586 77-95, looked up, fragment)
HIV infection and syncytia formation (HIV): inhibit both infection and syncytia formation
